# Measurements: patent publication US8846912B2, “Tartrate salts of quinazoline based EGFR inhibitors containing a zinc binding moiety” (Curis, Inc., priority 2007, dated 2014)
# Target: HDAC
# Test: HDAC fluorimetric enzyme assay (HeLa nuclear extract)
# Assay type: biochemical
# Experimental: HDAC inhibitors were screened using an HDAC fluorimetric assay kit (AK-500, Biomol, Plymouth Meeting, Pa.).
# Each assay was setup as follows: Defrosted all kit components and kept on ice until use. […] Prepared dilutions of Trichostatin A (TSA, positive control) and tested compounds in assay buffer (5× of final concentration). Diluted Fluor de Lys™ Substrate in assay buffer to 100 uM (50 fold=2× final). Diluted Fluor de Lys™ developer concentrate 20-fold (e.g. 50 μl plus 950 μl Assay Buffer) in cold assay buffer. Second, diluted the 0.2 mM Trichostatin A 100-fold in the 1× Developer (e.g. 10 μl in 1 ml; final Trichostatin A concentration in the 1× Developer=2 μM; final concentration after addition to HDAC/Substrate reaction=1 μM). Added Assay buffer, diluted trichostatin A or test inhibitor to appropriate wells of the microtiter plate. Added diluted HeLa extract or other HDAC sample to all wells except for negative controls.
row,Structure (SMILES),IC50 [nM]
1,"COCCOc1cc2ncnc(Nc3ccc(F)c(Cl)c3)c2cc1NC(=O)CCCC(=O)NO [Compound 68, N^1-(4-(3-chloro-4-fluorophenylamino)-7-(2-methoxyethoxy)quinazolin-6-yl)-N^5-hydroxyglutaramide]",1000 to 10000
2,"COc1cc2ncnc(N[C@H](C)c3ccccc3)c2cc1OCCCCCC(=O)NO [Compound 77, (R)—N-hydroxy-6-(7-methoxy-4-(1-phenylethylamino)quinazolin-6-yloxy)-hexanamide]",< 100
3,"COc1cc2ncnc(Nc3ccc(F)c(Cl)c3)c2cc1OCCOc1ccc(/C=C/C(=O)NO)cc1 [Compound 66, (E)-3-(4-(2-(4-(3-chloro-4-fluorophenylamino)-7-methoxyquinazolin-6-yloxy)ethoxy)phenyl)-N-hydroxyacrylamide]",100 to 1000
4,"C#Cc1cccc(Nc2ncnc3cc(OC)c(OCC(=O)NO)cc23)c1 [Compound 7, 2-(4-(3-ethynylphenylamino)-7-methoxyquinazolin-6-yloxy)-N-hydroxyacetamide]",> 10000
5,"COc1cc2ncnc(Nc3ccc(F)c(Cl)c3)c2cc1NC(=O)CCCCCCC(=O)NO [Compound 40, N^1-(4-(3-chloro-4-fluorophenylamino)-7-methoxyquinazolin-6-yl)-N^8-hydroxyoctanediamide]",< 100
6,"COc1cc2ncnc(NCc3ccc(F)c(Cl)c3)c2cc1OCCCCCCC(=O)NO [Compound 88, 7-(4-(3-chloro-4-fluorobenzylamino)-7-methoxyquinazolin-6-yloxy)-N-hydroxyheptanamide]",< 100
7,COc1cc2ncnc(Nc3ccc(F)c(Cl)c3)c2cc1OCCOc1ccc(CC(=O)NO)cc1 [Compound 91],1000 to 10000
8,"C#Cc1cccc(Nc2ncnc3cc(OC)c(NC(=O)CCCC(=O)NO)cc23)c1 [Compound 42, N^1-(4-(3-ethynylphenylamino)-7-methoxyquinazolin-6-yl)-N^5-hydroxyglutaramide]",100 to 1000
9,"COc1ccc([C@@H](C)Nc2ncnc3cc(OC)c(OCCCCCCC(=O)NO)cc23)cc1 [Compound 83, (R)—N-Hydroxy-7-(7-methoxy-4-(1-(4-methoxyphenyl)ethylamino)-quinazolin-6-yloxy)-heptanamide]",< 100
10,"C#Cc1cccc(Nc2ncnc3ccc(OCCCC(=O)NO)cc23)c1 [Compound 21, 4-(4-(3-ethynylphenylamino)quinazolin-6-yloxy)-N-hydroxybutanamide]",1000 to 10000
11,"C#Cc1cccc(Nc2ncnc3ccc(OCCCCCCC(=O)NO)cc23)c1 [Compound 24, 7-(4-(3-ethynylphenylamino)quinazolin-6-yloxy)-N-hydroxyheptanamide]",< 100
12,"C#Cc1cccc(Nc2ncnc3cc(OC)c(OCCCCC(=O)NO)cc23)c1 [Compound 10, 5-(4-(3-Ethynylphenylamino)-7-methoxyquinazolin-6-yloxy)-N-hydroxypentanamide]",100 to 1000
13,COc1cc2ncnc(Nc3ccc(F)c(Cl)c3)c2cc1OCCCCC(=O)NO [Compound 4],100 to 1000
14,C[C@@H](Nc1ncnc2ccc(OCCCCCC(=O)NO)cc12)c1ccccc1 [Compound 50],100 to 1000
15,"COc1cc2ncnc(Nc3ccc(F)c(Cl)c3)c2cc1OCCCC(=O)NO [Compound 3, 4-(4-(3-Chloro-4-fluorophenylamino)-7-methoxyquinazolin-6-yloxy)-N-hydroxybutanamide]",> 10000
16,"COc1cc2ncnc(NCc3ccccc3)c2cc1OCCCCCCC(=O)NO [Compound 85, 7-(4-(Benzylamino)-7-methoxyquinazolin-6-yloxy)-N-hydroxyheptanamide]",< 100
17,COc1cc2ncnc(Nc3ccc(F)c(Cl)c3)c2cc1OCCC(=O)NO [Compound 2],> 10000
18,O=C(CCOc1ccc2ncnc(Nc3ccc(F)c(Cl)c3)c2c1)NO [Compound 14],1000 to 10000
19,"COc1cc2ncnc(N[C@H](C)c3ccc(F)cc3)c2cc1OCCCCCCC(=O)NO [Compound 81, (R)-7-(4-(1-(4-fluorophenyl)ethylamino)-7-methoxyquinazolin-6-yloxy)-N-hydroxyheptanamide]",100 to 1000
20,"C#Cc1cccc(Nc2ncnc3cc(OC)c(NC(=O)CCCCC(=O)NO)cc23)c1 [Compound 43, N^1-(4-(3-ethynylphenylamino)-7-methoxyquinazolin-6-yl)-N^6-hydroxyadipamide]",100 to 1000
21,"O=C(CCCOc1ccc2ncnc(Nc3ccc(F)c(Cl)c3)c2c1)NO [Compound 15, 4-(4-(3-chloro-4-fluorophenylamino)quinazolin-6-yloxy)-N-Hydroxybutanamide]",< 100
22,"COCCOc1cc2ncnc(Nc3ccc(F)c(Cl)c3)c2cc1OCCCCCCC(=O)NO [Compound 30, 7-(4-(3-Chloro-4-fluorophenylamino)-7-(2-methoxyethoxy)quinazolin-6-yloxy)-N-hydroxyheptanamide]",< 100
23,"C#Cc1cccc(Nc2ncnc3ccc(OCCCCCC(=O)NO)cc23)c1 [Compound 23, 6-(4-(3-ethynylphenylamino)quinazolin-6-yloxy)-N-hydroxyhexanamide]",< 100
24,"C[C@@H](Nc1ncnc2ccc(OCCCCCC(=O)NO)cc12)c1ccccc1 [Compound 78, (R)—N-hydroxy-6-(4-(1-phenylethylamino)-quinazolin-6-yloxy)hexanamide]",< 100
25,"COc1cc2ncnc(N[C@H](C)c3ccc(Cl)cc3)c2cc1OCCCCCCC(=O)NO [Compound 82, (R)-7-(4-(1-(4-Chlorophenyl)ethylamino)-7-methoxyquinazolin-6-yloxy)-N-hydroxyheptanamide]",100 to 1000
26,"COc1cc2ncnc(N[C@H](C)c3ccccc3)c2cc1OCCCCCCC(=O)NO [Compound 79, (R)—N-hydroxy-7-(7-methoxy-4-(1-phenylethylamino)quinazolin-6-yloxy)heptanamide]",< 100

# More lines, now with the values ahead:
row,IC50 [nM],Structure (SMILES)
1,< 100,C#Cc1cccc(Nc2ncnc3ccc(OCCCCC(=O)NO)cc23)c1 [Compound 22]
2,1000 to 10000,"COc1cc2ncnc(Nc3ccc(F)c(Cl)c3)c2cc1NC(=O)CCCC(=O)NO [Compound 38, N^1-(4-(3-chloro-4-fluorophenylamino)-7-methoxyquinazolin-6-yl)-N^5-hydroxyglutaramide]"
3,100 to 1000,"O=C(CCCCOc1ccc2ncnc(Nc3ccc(F)c(Cl)c3)c2c1)NO [Compound 16, 5-(4-(3-chloro-4-fluorophenylamino)quinazolin-6-yloxy)-N-hydroxypentanamide]"
4,< 100,"O=C(CCCCCOc1ccc2ncnc(Nc3ccc(F)c(Cl)c3)c2c1)NO [Compound 17, 6-(4-(3-Chloro-4-fluorophenylamino)quinazolin-6-yloxy)-N-hydroxyhexanamide]"
5,> 10000,"O=C(COc1ccc2ncnc(Nc3ccc(F)c(Cl)c3)c2c1)NO [Compound 13, 2-(4-(3-Chloro-4-fluorophenylamino)quinazolin-6-yloxy)-N-hydroxyacetamide]"
6,> 10000,C#Cc1cccc(Nc2ncnc3cc(OC)c(OCCC(=O)NO)cc23)c1 [Compound 8]
7,> 10000,"COc1cc2ncnc(Nc3ccc(F)c(Cl)c3)c2cc1OCC(=O)NO [Compound 1, 2-(4-(3-Chloro-4-fluorophenylamino)-7-methoxyquinazolin-6-yloxy)-N-hydroxyacetamide]"
8,< 100,"COc1cc2ncnc(NCc3cccc(Br)c3)c2cc1OCCCCCCC(=O)NO [Compound 89, 7-(4-(3-bromobenzylamino)-7-methoxyquinazolin-6-yloxy)-N-hydroxyheptanamide]"
9,< 100,"COc1cc2ncnc(NCc3ccc(F)c(F)c3)c2cc1OCCCCCCC(=O)NO [Compound 87, 7-(4-(3,4-difluorobenzylamino)-7-methoxyquinazolin-6-yloxy)-N-hydroxyheptanamide]"
10,1000 to 10000,COc1cc2ncnc(Nc3ccc(F)c(Cl)c3)c2cc1NC(=O)Nc1ccc(C(=O)NO)cc1 [Compound 93]
11,100 to 1000,"C#Cc1cccc(Nc2ncnc3cc(OC)c(OCCCC(=O)NO)cc23)c1 [Compound 9, 4-(4-(3-ethynylphenylamino)-7-methoxyquinazolin-6-yloxy)-N-hydroxybutanamide]"
12,< 100,"COc1cc2ncnc(NCc3ccc(F)cc3)c2cc1OCCCCCCC(=O)NO [Compound 86, 7-(4-(4-fluorobenzylamino)-7-methoxyquinazolin-6-yloxy)-N-hydroxyheptanamide]"
13,< 100,C#Cc1cccc(CNc2ncnc3cc(OC)c(OCCCCCCC(=O)NO)cc23)c1 [Compound 90]
14,< 100,C#Cc1cc(Nc2ncnc3cc(OCCOC)c(OCCCCCCC(=O)NO)cc23)ccc1F [Compound 76]
15,< 100,"C#Cc1cc(Nc2ncnc3cc(OC)c(OCCCCCCC(=O)NO)cc23)ccc1F [Compound 75, 7-(4-(3-ethynyl-4-fluorophenylamino)-7-methoxyquinazolin-6-yloxy)-N-hydroxyheptanamide]"
16,< 100,"C#Cc1cccc(Nc2ncnc3cc(OC)c(NC(=O)CCCCCCC(=O)NO)cc23)c1 [Compound 44, N^1-(4-(3-ethynylphenylamino)-7-methoxyquinazolin-6-yl)-N^8-hydroxyoctanediamide]"
17,< 100,COc1cc2ncnc(NCCc3ccccc3)c2cc1OCCCCCCC(=O)NO [Compound 84]
18,> 10000,"C#Cc1cccc(Nc2ncnc3ccc(OCC(=O)NO)cc23)c1 [Compound 19, 2-(4-(3-ethynylphenylamino)quinazolin-6-yloxy)-N-hydroxyacetamide]"
19,< 100,"O=C(CCCCCCOc1ccc2ncnc(Nc3ccc(F)c(Cl)c3)c2c1)NO [Compound 18, 7-(4-(3-chloro-4-fluorophenylamino)quinazolin-6-yloxy)-N-hydroxyheptanamide]"
20,< 100,"C#Cc1cccc(Nc2ncnc3cc(OC)c(OCCCCCC(=O)NO)cc23)c1 [Compound 11, 6-(4-(3-ethynylphenylamino)-7-methoxyquinazolin-6-yloxy)-N-hydroxyhexanamide]"
